Read-outs that look alike come from different tables or passages of the source.
Assays:
[1] = tested on: Sulfate Reducing Bacteria (SRB); assay: Evaluation of biocides in pH adjusted medium containing SRB, with coupons; assay type: cell-based; details: for Log of Bacterial Cells/ml: SRB medium
Experimental: (§1) In these experiments, SRB or FAAPB cultures were treated with various concentrations of biocides, after raising the pH to 9.8-10.00. The bacterial growth in the treated samples was estimated by the serial dilution method. The visual appearance of coupons in treated and untreated samples was recorded. An aldehyde and phosphonium quat were used for biocides.

[2] = tested on: SRB; assay: Time kill study of special blends, SRB culture; assay type: cell-based; details: 50 PPM (pH ~7)
Experimental: (§2) More than thirty special blends containing NaOH, oxygen scavenger and scale inhibitor were made. Time kill studies were conducted to evaluate the effect of these special blends on bacterial growth. For the time kill studies cultures of SRB and anaerobic bacteria as well as filtered Galveston seawater were used. Galveston seawater was filtered through 50 μm filter. The time kill studies were basically the same as in the raised pH studies described earlier. The only difference was that in these studies, the pH was raised by the special blends and natural seawater was included in addition to bacterial cultures. Usually, 1,500 to 3,000 PPM of the special blends were used to raise the pH to 9.6-9.8. In some experiments, the seawater was treated only with NaOH or oxygen scavenger for comparison purposes. A piece of mild carbon steel coupon (1″×0.3″) was inserted into the treated water to monitor MIC and corrosion in all of the experiments.
(§3) The bacterial growth was monitored for 20 days. The monitoring of coupons in the treated samples continued for weeks to months. The products that inhibited the bacterial growth and kept the coupons clean were selected. These selected products were re-evaluated using the bacterial cultures and the filtered seawater.

[3] = tested on: anaerobic bacteria; assay: Time kill study of special blends, anaerobic bacteria culture; assay type: cell-based; details: 50 PPM (pH ~7)
Experimental: as §2, §3

[4] = tested on: SRB; assay: Effect of special blends on SRB growth in natural (Galveston) seawater; assay type: cell-based; details: 25 PPM
Experimental: as §2, §3

[5] = Deactivation of biocides / biocide residual in Galveston seawater; assay type: physicochemical
Experimental: The pH of fresh water or seawater was adjusted and desired concentrations of biocides were added. The concentration of biocides in the water was measured periodically. Such monitoring provided information on the deactivation rate of biocides. To monitor the concentration of THPS and glutaraldehyde a LaMotte kit and a Glutatect kit were used, respectively. The LaMotte Company supplies the LaMotte kit. Alden Scientific manufactures the Glutatect kit. After the complete deactivation of biocide, the water was tested for aquatic toxicity.
Galveston seawater was treated with NaOH solution and with blends of NaOH and chemicals separately to raise the pH to 9-10.25. 12-100 PPM of 50% glutaraldehyde was added to each aliquot of pH-adjusted water. The treated water was left at room temperature. The concentration of glutaraldehyde was monitored for 9-20 days, using Glutatect kit. In another experiment, 100 PPM of 75% THPS was added to Galveston seawater following pH adjustment with NaOH. THPS concentration was monitored using a LaMotte Kit.

[6] = tested on: sulfate reducting bacteria (SRB); assay: Time kill study of SRB cultures at raised pH (NaOH), serial dilution; assay type: cell-based; details: 200 PPM, combined with high pH
Experimental: Cultures (in API media) of sulfate reducting bacteria (SRB) and facultative anaerobic acid producing bacteria (FAAPB) were treated separately with dilute NaOH solution to raise the pH of the culture to 9.8-10.00. The level of bacterial growth was estimated by the serial dilution method. In some experiments oxygen scavenger (ammonium bisulfite) was also included to see if it has any effect on bacterial growth. No coupons were used in these experiments.
as §1

[7] = tested on: M. Bahia; assay: Static renewal toxicity test of treated seawater; assay type: in vivo; details: 150 PPM of THPS
Experimental: (§4) Three of the most promising special blends were tested 249C, 246C, and 283C. Galveston seawater was treated separately with 249C, 246C and 283C at 3,000 PPM, 2,000 PPM and 1,450 PPM respectively. The treated water was then subjected to a static renewal toxicity test (using Mysid and Menidid species). The EPA requires this toxicity test for water discharged into the Gulf of Mexico.

[8] = tested on: M. Beryllina; assay: Static renewal toxicity test of treated seawater; assay type: in vivo; details: 150 PPM of THPS
Experimental: as §4

[9] = anaerobic condition, cited from earlier work
[10] = Sea Water without pH adjustment, 100 PPM added

Molecule | Log of Bacterial Cells/ml, SRB [2] | Log of Bacterial Cells/ml, Anaerobic [3] | Log of Bacterial Cells/ml [4] | PPM Biocide after 9 Days ([5]; Sea Water pH 10, 100 PPM added) | PPM Biocide at 0 Hr ([5]; Sea Water pH 10, 100 PPM added) | PPM Biocide, 2 Days ([5]; Sea Water pH 10, 100 PPM added) | PPM Biocide after 9 Days [5, 10] | PPM Biocide at 0 Hr [5, 10] | PPM Biocide, 2 Days [5, 10] | other results
O=CCCCC=O [Glutaraldehyde, glutaraldehyde] | 0-1 Log of Bacterial Cells/ml | ≧3 Log of Bacterial Cells/ml | 1 Log of Bacterial Cells/ml | 10-20 PPM | ˜40 PPM | 20-40 PPM | 20-40 PPM | ˜40 PPM | 20-40 PPM | Log of Bacterial Cells/ml ([1]; Concentration 12.5): 0 Log of Bacterial Cells/ml; Log of Bacterial Cells/ml ([1]; Concentration 25): 0-1 Log of Bacterial Cells/ml; Log of Bacterial Cells/ml ([1]; Concentration 75): 0 Log of Bacterial Cells/ml; Log of Bacterial Cells/ml ([1]; Concentration 150): 0 Log of Bacterial Cells/ml; concentration sufficient to inhibit planktonic as well as sessile bacterial growths ([1]; water with pH adjusted to 10): 10-12 PPM; biocide residual ([5]; seawater treated with special blends, after 5-10 days): below 5 PPM
N.O=S(O)O [NH4HSO3, ammonium bisulfite] | – | – | – | – | – | – | – | – | – | Log of SRB Cells/mL ([6]; Experiment 1 (7 Days)): 2 Log of SRB Cells/mL; Log of SRB Cells/mL ([6]; Experiment 2 (7 Days)): 2 Log of SRB Cells/mL
tetrakis hydroxymethyl phosphonium sulfate [THPS] | 0-1 Log of Bacterial Cells/ml | ≧3 Log of Bacterial Cells/ml | 1 Log of Bacterial Cells/ml | 14 PPM | 136 PPM | 58 PPM | 68 PPM | 132 PPM | 104 PPM | Log of Bacterial Cells/ml ([1]; Concentration 18.75): 0-3 Log of Bacterial Cells/ml; Log of Bacterial Cells/ml ([1]; Concentration 37.5): 0-1 Log of Bacterial Cells/ml; Log of Bacterial Cells/ml ([1]; Concentration 112.5): 0 Log of Bacterial Cells/ml; LOEC [7]: <9.6/9.6%; NOEC [7]: <9.6/9.6%; LOEC [8]: 24.6%; NOEC [8]: 12.0%; half life ([9]; pH 7): 72 days; half life ([9]; pH 9): 7 days
